The text below walks through data of PubChem BioAssay (NCI).

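Assay format: 96-well plates, 48-hour exposure. At the GI50, growth is halved. The concentration for full growth arrest is given as TGI.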

Test in all cases: NCI-60 cell line screen, 48 h
For experiment [1], the system named is 786-0 renal.
Experiment [2] relates to RPMI-8226 leukemia.
For experiment [3], the system named is HOP-92 NSCLC.
Experiment [4] concerns RXF 393 renal.
In experiment [5] the test system is NCI/ADR-RES ovarian.
Experiment [6] relates to A549 NSCLC.
Experiment [7] relates to HCT-15 colon.
Experiment [8] concerns TK-10 renal.
Experiment [9] has as its system KM12 colon.
The test system of experiment [10] is HOP-62 NSCLC.

On to `C=C(C)C1CCC2(C(=O)O)CCC3(C)C(CCC4C5(C)CCC(O)C(C)(C)C5CCC43C)C12` (stereo not drawn), for which the TGI worked out at 25.2 µM in experiment [1]; 63.5 µM in experiment [2]; 12.4 µM in [3]; 5.99 µM in [4]; 31.5 µM in [5]; 24.1 µM in [6]. Moreover, the TGI was 23.5 µM in experiment [7], 28.9 µM in [8], 20.3 µM in experiment [9] and 27.6 µM in experiment [10].
Turning to `COc1cc(/C=C2\CC3C4CCC5=CC(=O)CC[C@]5(C)C4CC[C@]3(C)C2=O)ccc1OCCN1CCCCC1` (stereo partly drawn), the GI50 in [1] was 1.92 µM; in experiment [2] it was 1.88 µM; in [3], 1.45 µM; in experiment [4], 2.58 µM; in [5] it was 4.62 µM; in experiment [6] it was 11 µM. In addition, the GI50 in [7] was 3.9 µM; in [8], 2.45 µM; in [9] it was 1.69 µM; in experiment [10] it was 2.36 µM. In addition, the TGI in experiment [1] is 4.21 µM; in experiment [2], 5.05 µM; in [3], 8.34 µM; in [4], 10.4 µM; in experiment [5] it was greater than 100 µM; in experiment [6], 41.1 µM. For the same molecule, the TGI in experiment [7] came out at 16 µM; in experiment [8], 6.96 µM; in [9], 3.52 µM; in [10], 6.66 µM.
In the case of `O=C1c2ccccc2-c2ccccc2C1(Cl)Cl`, the GI50 in experiment [1] is 2.11 µM; in experiment [2], 0.527 µM; in experiment [3] it was 1.76 µM; in experiment [4] it was 1.78 µM; in [5], 0.398 µM; in experiment [6], 1.49 µM. Besides, the GI50 in experiment [7] was 1.81 µM; in experiment [8] it was 1.25 µM; in [9], 1.73 µM; in experiment [10] it was 1.13 µM. Further, the TGI in [1] is 4.16 µM; in experiment [2], 2.63 µM; in [3], 4.07 µM; in experiment [4], 3.2 µM; in [5] it was 1.85 µM; in experiment [6] it was 3.21 µM. The TGI in [7] is 4.25 µM; in [8], 2.68 µM; in experiment [9], 3.17 µM; in experiment [10], 2.64 µM.
As to `COC1/C=C/OC2(C)Oc3c(C)c(O)c4c(O)c(c(C=NOC(c5ccccc5)c5ccccc5)c(O)c4c3C2=O)NC(=O)/C(C)=C/C=C/C(C)C(O)C(C)C(O)C(C)C(OC(C)=O)C1C` (stereo not drawn), the GI50 in experiment [1] is 1.29 µM; in experiment [2], 1.16 µM; in experiment [3], 0.972 µM; in experiment [4], 0.943 µM; in experiment [5], 1.67 µM; in experiment [6] it was 1.58 µM. For the same molecule, the GI50 was 1.17 µM in experiment [7], 1.14 µM in experiment [8], 0.992 µM in experiment [9] and 0.916 µM in experiment [10]. The TGI stood at 3.06 µM in experiment [1]; 3.19 µM in experiment [2]; 2.74 µM in experiment [3]; 1.74 µM in experiment [4]; 6.19 µM in experiment [5]; 6.05 µM in experiment [6]. In addition, the TGI in experiment [7] came to 2.96 µM; in experiment [8] it was 3.59 µM; in [9], 1.96 µM; in [10], 1.85 µM.
As to `CCCCCCn1c2c(c3c(O)cccc31)C(=O)c1ccccc1-2`, the GI50 in experiment [1] was 17.1 µM; in experiment [2], 20.3 µM; in [3] it was 17.6 µM; in [4], 12 µM; in experiment [5], 18 µM; in [6] it was 16.4 µM. Besides, the GI50 in experiment [7] was 18.6 µM; in experiment [8], 11 µM; in [9], 17.6 µM; in [10], 18.4 µM. The TGI worked out at 32.4 µM in [1]; 41.9 µM in [2]; 33.2 µM in experiment [3]; 28 µM in [4]; 33 µM in experiment [5]; 34.5 µM in experiment [6]. Moreover, the TGI in experiment [7] came out at 37 µM; in experiment [8] it was 24.2 µM; in experiment [9], 34.4 µM; in [10], 33.8 µM.
Take `CSc1nc(SC)c2c(C)cn(C3OC(C)C(O)C(O)C3O)c2n1` (stereo not drawn): the TGI is greater than 100 µM in experiment [1]; greater than 100 µM in experiment [2]; 83.4 µM in [3]; greater than 100 µM in experiment [4]; greater than 100 µM in experiment [5]; greater than 100 µM in experiment [6]. The TGI in [7], in [8], in [9] and in [10] was greater than 100 µM each time.
`Cn1c(=O)c(-c2c(Cl)cccc2Cl)cc2cnc(Nc3ccc(I)cc3)nc21`: the GI50 in [1] is 1.95 µM; in experiment [2] it was less than 0.0118 µM; in [3] it was 0.0179 µM; in experiment [4] it was 2.44 µM; in experiment [6], 3.72 µM; in [7], 2.87 µM. The GI50 was 0.459 µM in [8] and 0.0452 µM in experiment [9]. For the same molecule, the TGI worked out at 6.22 µM in experiment [1]; 0.0785 µM in experiment [2]; 4.94 µM in [3]; 15 µM in [4]; 0.225 µM in [5]; 19.4 µM in experiment [6]. Further, the TGI in experiment [7] was 9.42 µM; in [8], 2.12 µM; in [9] it was 1.5 µM; in experiment [10], 0.668 µM.
Regarding `O=C(Nc1nc(-c2ccccc2Cl)cs1)c1cc(-c2ccc(Cl)cc2)nc2ccc(Cl)cc12`, the GI50 was 2.84 µM in experiment [1]; 1.38 µM in experiment [2]; 1.42 µM in experiment [3]; 10.3 µM in [4]; 1.73 µM in [5]; 39.2 µM in experiment [6]. For the same molecule, the GI50 was 1.93 µM in experiment [7], 15 µM in [8], 3.5 µM in experiment [9] and 3.73 µM in experiment [10]. Moreover, the TGI in experiment [1] is 20 µM; in [2], greater than 100 µM; in [3], 8.43 µM; in experiment [4], greater than 100 µM; in experiment [5] it was greater than 100 µM; in experiment [6], greater than 100 µM. For the same molecule, the TGI in experiment [7] is 40 µM; in [8], greater than 100 µM; in experiment [9], 69.5 µM; in experiment [10] it was 45 µM.
As for `CS(=O)(=O)c1ccc(-c2cnc(NCc3ccco3)n3cnnc23)cc1`, the GI50 in experiment [1] was greater than 100 µM; in experiment [2], 53.3 µM; in [3], 21.4 µM; in experiment [4], greater than 100 µM; in experiment [5], greater than 100 µM; in [6], greater than 100 µM. For the same molecule, the GI50 in experiment [7], in experiment [8], in experiment [9] and in experiment [10] was greater than 100 µM throughout. Further, the TGI in [1], in [2], in experiment [3], in [4], in [5] and in experiment [6] was greater than 100 µM throughout. Besides, the TGI in [7], in experiment [8], in experiment [9] and in experiment [10] was greater than 100 µM throughout.
For the molecule `Cc1nc2cc(Nc3nc(Nc4ccc(F)cc4)nc(N4CCCC4)n3)ccc2n1Cc1ccccc1`, the GI50 was 1.85 µM in experiment [1]; 1.86 µM in [2]; 1.07 µM in [3]; 1.55 µM in experiment [4]; 1.96 µM in experiment [5]; 2.05 µM in experiment [6]. The GI50 in experiment [7] is 1.88 µM; in [8], 1.89 µM; in experiment [9], 1.86 µM; in [10], 1.74 µM. The TGI in experiment [1] was found to be 3.46 µM; in experiment [2], 4.55 µM; in [3], 2.47 µM; in [4], 3.09 µM; in experiment [5], 3.94 µM; in [6], 4.63 µM. In addition, the TGI in experiment [7] was 3.99 µM; in [8], 3.37 µM; in experiment [9], 3.51 µM; in experiment [10], 3.45 µM.
